In the supplement of paper PMC10307832:

What was measured:
Assay in all cases: relative viability (nuclei count vs DMSO), 5 days (fraction); higher = more cells survive
CX-5461 + Palbociclib = compound: Cc1cnc(CNC(=O)c2c(=O)c3ccc(N4CCCN(C)CC4)nc3n3c2sc2ccccc23)cn1 [CX-5461] + CC(=O)c1c(C)c2cnc(Nc3ccc(N4CCNCC4)cn3)nc2n(C2CCCC2)c1=O [Palbociclib] (partner 0.5 µM)
How it was run: (§1)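 After 5 days of treatment, lung cancer cells in 1536-well plates were fixed and stained in a single step (final 0.05% Triton X-100, 1% formaldehyde, 1 ug/ml Hoechst) and their nuclei counted on 4× images. Treatment had been applied by pin tool the day after seeding as one drug alone or as a fixed anchor-drug dose with five library-drug doses (not always all listed) in √10 steps. Relative viability is the nuclei count of treated wells divided by that of vehicle wells, and values are medians of duplicate plates.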

IMD-0354 + Navitoclax = compound: O=C(Nc1cc(C(F)(F)F)cc(C(F)(F)F)c1)c1cc(Cl)ccc1O [IMD-0354] + CC1(C)CCC(c2ccc(Cl)cc2)=C(CN2CCN(c3ccc(C(=O)NS(=O)(=O)c4ccc(N[C@H](CCN5CCOCC5)CSc5ccccc5)c(S(=O)(=O)C(F)(F)F)c4)cc3)CC2)C1 [Navitoclax] (partner 0.5 µM)
How it was run: as §1

IMD-0354 + Pictilisib = compound: O=C(Nc1cc(C(F)(F)F)cc(C(F)(F)F)c1)c1cc(Cl)ccc1O [IMD-0354] + CS(=O)(=O)N1CCN(Cc2cc3nc(-c4cccc5[nH]ncc45)nc(N4CCOCC4)c3s2)CC1 [Pictilisib] (partner 1 µM)
How it was run: as §1

IMD-0354 + Dasatinib = compound: O=C(Nc1cc(C(F)(F)F)cc(C(F)(F)F)c1)c1cc(Cl)ccc1O [IMD-0354] + Cc1nc(Nc2ncc(C(=O)Nc3c(C)cccc3Cl)s2)cc(N2CCN(CCO)CC2)n1 [Dasatinib] (partner 0.075 µM)
How it was run: as §1

UMC-11 was tested. Which relative viability (CX-5461 + Palbociclib; first compound 0.01 µM) did it give?
Its relative viability is 0.36.

And the relative viability (CX-5461 + Palbociclib; first compound 0.03162 µM)?
Its relative viability is 0.319.

What about the relative viability (CX-5461 + Palbociclib; first compound 0.1 µM) of the same cell line?
The relative viability was 0.306.

And the relative viability (CX-5461 + Palbociclib; first compound 0.3162 µM)?
Its relative viability is 0.294.

What about the relative viability (CX-5461 + Palbociclib; first compound 1 µM) of the same cell line?
The relative viability was 0.241.

What about the relative viability (IMD-0354 + Navitoclax; first compound 0.04 µM) of the same cell line?
Its relative viability is 0.338.

What about the relative viability (IMD-0354 + Navitoclax; first compound 0.1265 µM) of the same cell line?
The relative viability was 0.276.

What about the relative viability (IMD-0354 + Navitoclax; first compound 0.4 µM) of the same cell line?
Its relative viability is 0.29.

And the relative viability (IMD-0354 + Navitoclax; first compound 1.265 µM)?
Its relative viability is 0.112.

And the relative viability (IMD-0354 + Navitoclax; first compound 4 µM)?
The relative viability was 0.149.

And the relative viability (IMD-0354 + Pictilisib; first compound 0.04 µM)?
Its relative viability is 0.939.

And the relative viability (IMD-0354 + Pictilisib; first compound 0.1265 µM)?
The relative viability was 0.868.

What about the relative viability (IMD-0354 + Pictilisib; first compound 0.4 µM) of the same cell line?
Its relative viability is 0.542.

And the relative viability (IMD-0354 + Pictilisib; first compound 1.265 µM)?
The relative viability was 0.187.

And the relative viability (IMD-0354 + Pictilisib; first compound 4 µM)?
Its relative viability is 0.223.

And the relative viability (IMD-0354 + Dasatinib; first compound 0.04 µM)?
The relative viability was 0.541.

And the relative viability (IMD-0354 + Dasatinib; first compound 0.1265 µM)?
Its relative viability is 0.416.

And the relative viability (IMD-0354 + Dasatinib; first compound 0.4 µM)?
The relative viability was 0.246.

And the relative viability (IMD-0354 + Dasatinib; first compound 1.265 µM)?
The relative viability was 0.171.

And the relative viability (IMD-0354 + Dasatinib; first compound 4 µM)?
Its relative viability is 0.206.
